Results: ChEMBL document CHEMBL4715877, “Asperginols A and B, Diterpene Pyrones, from an Aspergillus sp. and the Structure Revision of Previously Reported Analogues” (J Nat Prod, 2020)

Key:
Format in all cases: functional, cell-based
HCT-116 = assay: Cytotoxicity against human HCT-116 cells assessed as reduction in cell viability after 72 hrs by MTT assay
HT-29 = assay: Cytotoxicity against human HT-29 cells assessed as reduction in cell viability after 72 hrs by MTT assay
HepG2 = assay: Cytotoxicity against human HepG2 cells assessed as reduction in cell viability after 72 hrs by MTT assay

SMILES	IC50 (HCT-116)	IC50 (HT-29; Homo sapiens, HT-29, 72 h, read-out: IC50) [µM]	IC50 (HepG2)	IC50 (HT-29; ht-29)
C=C1[C@H](O)C[C@@H]2[C@](C)(CC[C@H]3OC(C)(C)[C@@H](OC(=O)/C=C/C=C/C=C/[C@@H](C)CC)CC[C@]23C)[C@@H]1Cc1c(O)c(C)c(C)oc1=O	Not Active	7.6	Not Active	
C=C1[C@H](O)C[C@@H]2[C@](C)(CC[C@H]3OC(C)(C)[C@@H](OC(=O)/C=C/C=C/[C@@H](C)CC)CC[C@]23C)[C@@H]1Cc1c(O)c(C)c(C)oc1=O	Not Active		Not Active	Not Active
C=C1CC[C@@H]2[C@](C)(CC[C@H]3OC(C)(C)[C@@H](OC(=O)/C=C/C=C/[C@@H](C)CC)CC[C@]23C)[C@@H]1Cc1c(O)c(C)c(C)oc1=O	Not Active		Not Active	Not Active
C=C1[C@H](O)C[C@@H]2[C@](C)(CC[C@H]3OC(C)(C)[C@@H](O)CC[C@]23C)[C@@H]1Cc1c(O)c(C)c(C)oc1=O	Not Active		Not Active	Not Active
C=C1[C@H](O)C[C@@H]2[C@](C)(CC[C@H]3OC(C)(C)[C@@H](OC(C)=O)CC[C@]23C)[C@@H]1Cc1c(O)c(C)c(C)oc1=O	Not Active		Not Active	Not Active
C=C1CC[C@@H]2[C@](C)(CC[C@H]3OC(C)(C)[C@@H](O)CC[C@]23C)[C@@H]1Cc1c(O)c(C)c(C)oc1=O	Not Active		Not Active	Not Active
